Test results published in ChEMBL document CHEMBL1139487, “Discovery of corticotropin releasing factor 2 receptor selective sauvagine analogues for treatment of skeletal muscle atrophy” (J Med Chem, 2005).
Square brackets hold non-standard residues; d marks the D form. Peptide text beside a SMILES is read from it. 1Nal = N[C@@H](Cc1cccc2ccccc12)C(=O)O; pGlu = O=C1CC[C@@H](C(=O)O)N1

Assays:
[1] = molecular target: Corticotropin-releasing factor receptor 2 (Mus musculus, UniProt Q60748); assay: In vitro effective concentration for mouse corticotropin releasing factor 2 receptor
Corticotropin-releasing factor receptor 2, sequence (Q60748 whole entry): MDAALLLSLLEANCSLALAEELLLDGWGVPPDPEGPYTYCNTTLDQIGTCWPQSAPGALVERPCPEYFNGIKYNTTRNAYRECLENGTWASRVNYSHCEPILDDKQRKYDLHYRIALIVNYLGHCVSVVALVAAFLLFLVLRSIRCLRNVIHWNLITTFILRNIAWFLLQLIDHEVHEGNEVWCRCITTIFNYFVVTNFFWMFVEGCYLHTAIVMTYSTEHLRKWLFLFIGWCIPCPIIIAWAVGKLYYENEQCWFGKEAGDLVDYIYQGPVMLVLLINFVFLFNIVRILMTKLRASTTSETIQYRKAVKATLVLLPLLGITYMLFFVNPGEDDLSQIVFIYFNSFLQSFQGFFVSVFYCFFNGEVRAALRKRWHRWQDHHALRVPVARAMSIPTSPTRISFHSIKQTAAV

[2] = molecular target: Corticotropin-releasing factor receptor 2 (Mus musculus) (UniProt Q60748); assay: In vitro agonistic activity against mouse corticotropin releasing factor 2 receptor; type: functional
Corticotropin-releasing factor receptor 2 (Mus musculus), sequence (Q60748 whole entry): as above

Mus musculus = species: Mus musculus; assay: Selectivity ratio of EC50s for mouse corticotropin releasing factor receptors 1 and 2
[3] = molecular target: T1, Corticotropin-releasing factor receptor 1 (Mus musculus) (UniProt P35347); assay: In vitro agonistic activity against mouse corticotropin releasing factor 1 receptor; type: functional
T1 sequence (whole entry): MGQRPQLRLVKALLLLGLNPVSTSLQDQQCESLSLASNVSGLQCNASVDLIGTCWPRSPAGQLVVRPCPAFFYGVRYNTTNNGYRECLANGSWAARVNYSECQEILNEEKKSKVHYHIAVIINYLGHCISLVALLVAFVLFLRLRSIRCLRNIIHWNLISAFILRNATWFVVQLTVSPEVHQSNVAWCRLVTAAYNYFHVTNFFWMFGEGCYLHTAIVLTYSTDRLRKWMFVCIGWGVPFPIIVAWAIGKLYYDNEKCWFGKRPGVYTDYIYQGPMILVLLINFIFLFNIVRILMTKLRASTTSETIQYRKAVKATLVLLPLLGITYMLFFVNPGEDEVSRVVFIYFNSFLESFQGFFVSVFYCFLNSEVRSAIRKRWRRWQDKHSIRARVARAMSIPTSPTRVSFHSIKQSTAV

[4] = molecular target: T2, Corticotropin-releasing factor receptor 1 (Mus musculus, UniProt P35347); assay: In vitro effective concentration for mouse corticotropin releasing factor 1 receptor
T2 sequence (P35347 whole entry): T1 sequence (whole entry)

SMILES: CC[C@H](C)[C@H](NC(=O)[C@@H](NC(=O)[C@H](CC(=O)O)NC(=O)[C@H](CC(C)C)NC(=O)[C@H](CC(C)C)NC(=O)[C@H](CC(C)C)NC(=O)[C@H](CCCN=C(N)N)NC(=O)[C@H](CC(N)=O)NC(=O)[C@H](CC(N)=O)NC(=O)[C@H](C)NC(=O)[C@H](C)NC(=O)[C@H](CCC(N)=O)NC(=O)[C@H](CCC(N)=O)NC(=O)[C@H](CCCCN)NC(=O)[C@H](CCC(=O)O)NC(=O)[C@H](CCCCN)NC(=O)[C@H](CCC(=O)O)NC(=O)[C@H](CCC(N)=O)NC(=O)[C@H](CCCCN)NC(=O)[C@H](CCC(=O)O)NC(=O)[C@@H](NC(=O)[C@H](CCC(=O)O)NC(=O)[C@@H](NC(=O)[C@H](CCSC)NC(=O)[C@H](CCCCN)NC(=O)[C@H](CCCN=C(N)N)NC(=O)[C@H](CC(C)C)NC(=O)[C@H](CC(C)C)NC(=O)[C@H](Cc1ccccc1)NC(=O)[C@@H](NC(=O)[C@@H]1CCCN1C(=O)[C@H](CC(C)C)NC(=O)[C@H](CC(=O)O)NC(=O)[C@@H](NC(=O)[C@H](CO)NC(=O)[C@@H](NC(=O)[C@@H]1CCCN1C(=O)[C@@H]1CCCN1C(=O)CNC(=O)[C@@H]1CCC(=O)N1)[C@@H](C)CC)[C@@H](C)CC)[C@@H](C)CC)[C@@H](C)CC)[C@@H](C)CC)[C@@H](C)O)C(=O)O
- EC50 [1]: 0.0128 µM
- Emax [2]: 100%
- Selectivity (Mus musculus): 59
- Emax [3]: 83%
- EC50 [4]: 0.756 µM

SMILES: CC[C@H](C)[C@H](NC(=O)[C@@H](NC(=O)[C@H](CC(=O)O)NC(=O)[C@H](CC(C)C)NC(=O)[C@H](CC(C)C)NC(=O)[C@H](CC(C)C)NC(=O)[C@H](CCCN=C(N)N)NC(=O)[C@H](CC(N)=O)NC(=O)[C@H](CC(N)=O)NC(=O)[C@H](C)NC(=O)[C@H](C)NC(=O)[C@H](CCC(N)=O)NC(=O)[C@H](CCC(N)=O)NC(=O)[C@H](CCCCN)NC(=O)[C@H](CCC(=O)O)NC(=O)[C@H](CCCCN)NC(=O)[C@H](CCC(=O)O)NC(=O)[C@H](CCC(N)=O)NC(=O)[C@H](CCCCN)NC(=O)[C@H](CCC(=O)O)NC(=O)[C@@H](NC(=O)[C@H](CCC(=O)O)NC(=O)[C@@H](NC(=O)[C@H](CCSC)NC(=O)[C@H](CCCCN)NC(=O)[C@H](CCCN=C(N)N)NC(=O)[C@H](CC(C)C)NC(=O)[C@H](CC(C)C)NC(=O)[C@H](CCC(N)=O)NC(=O)[C@H](CC(C)C)NC(=O)[C@@H]1CCCN1C(=O)[C@H](CC(C)C)NC(=O)[C@H](CC(=O)O)NC(=O)[C@@H](NC(=O)[C@H](CO)NC(=O)[C@@H](NC(=O)[C@@H]1CCCN1C(=O)[C@@H]1CCCN1C(=O)CNC(=O)[C@@H]1CCC(=O)N1)[C@@H](C)CC)[C@@H](C)CC)[C@@H](C)CC)[C@@H](C)CC)[C@@H](C)O)C(=O)O
- Emax [2]: 88%
- Selectivity (Mus musculus): 65
- Emax [3]: 100%

SMILES: CC[C@H](C)[C@H](NC(=O)[C@@H](NC(=O)[C@H](CC(=O)O)NC(=O)[C@H](CC(C)C)NC(=O)[C@H](CC(C)C)NC(=O)[C@H](CC(C)C)NC(=O)[C@H](CCCN=C(N)N)NC(=O)[C@H](CC(N)=O)NC(=O)[C@H](CC(N)=O)NC(=O)[C@H](C)NC(=O)[C@H](C)NC(=O)[C@H](CCC(N)=O)NC(=O)[C@H](CCC(N)=O)NC(=O)[C@H](CCCCN)NC(=O)[C@H](CCC(=O)O)NC(=O)[C@H](CCCCN)NC(=O)[C@H](CCC(=O)O)NC(=O)[C@H](CCC(N)=O)NC(=O)[C@H](CCCCN)NC(=O)[C@H](CCC(=O)O)NC(=O)[C@@H](NC(=O)[C@H](CCC(=O)O)NC(=O)[C@@H](NC(=O)[C@H](CCSC)NC(=O)[C@H](CCCCN)NC(=O)[C@H](CCCN=C(N)N)NC(=O)[C@H](CC(C)C)NC(=O)[C@H](CC(C)C)NC(=O)[C@H](Cc1ccc(O)cc1)NC(=O)[C@H](Cc1ccc(O)cc1)NC(=O)[C@@H]1CCCN1C(=O)[C@H](CC(C)C)NC(=O)[C@H](CC(=O)O)NC(=O)[C@@H](NC(=O)[C@H](CO)NC(=O)[C@@H](NC(=O)[C@@H]1CCCN1C(=O)[C@@H]1CCCN1C(=O)CNC(=O)[C@@H]1CCC(=O)N1)[C@@H](C)CC)[C@@H](C)CC)[C@@H](C)CC)[C@@H](C)CC)[C@@H](C)O)C(=O)O
- Emax [2]: 93%
- Selectivity (Mus musculus): 15
- Emax [3]: 99%

SMILES: CC[C@H](C)[C@H](NC(=O)[C@@H](NC(=O)[C@H](CC(=O)O)NC(=O)[C@H](CC(C)C)NC(=O)[C@H](CC(C)C)NC(=O)[C@H](CC(C)C)NC(=O)[C@H](CCCN=C(N)N)NC(=O)[C@H](CC(N)=O)NC(=O)[C@H](CC(N)=O)NC(=O)[C@H](C)NC(=O)[C@H](C)NC(=O)[C@H](CCC(N)=O)NC(=O)[C@H](CCC(N)=O)NC(=O)[C@H](CCCCN)NC(=O)[C@H](CCC(=O)O)NC(=O)[C@H](CCCCN)NC(=O)[C@H](CCC(=O)O)NC(=O)[C@H](CCC(N)=O)NC(=O)[C@H](CCCCN)NC(=O)[C@H](CCC(=O)O)NC(=O)[C@@H](NC(=O)[C@H](CCC(=O)O)NC(=O)[C@@H](NC(=O)[C@H](CCSC)NC(=O)[C@H](CCCCN)NC(=O)[C@H](CCCN=C(N)N)NC(=O)[C@H](CC(C)C)NC(=O)[C@H](CC(C)C)NC(=O)[C@H](CC(C)C)NC(=O)[C@@H](NC(=O)[C@@H]1CCCN1C(=O)[C@H](CC(C)C)NC(=O)[C@H](CC(=O)O)NC(=O)[C@@H](NC(=O)[C@H](CO)NC(=O)[C@@H](NC(=O)[C@@H]1CCCN1C(=O)[C@@H]1CCCN1C(=O)CNC(=O)[C@@H]1CCC(=O)N1)[C@@H](C)CC)[C@@H](C)CC)[C@@H](C)O)[C@@H](C)CC)[C@@H](C)CC)[C@@H](C)O)C(=O)O
- Emax [2]: 100%
- Selectivity (Mus musculus): > 49
- Emax [3]: 48%

SMILES: CC[C@H](C)[C@H](NC(=O)[C@@H](NC(=O)[C@H](CC(=O)O)NC(=O)[C@H](CC(C)C)NC(=O)[C@H](CC(C)C)NC(=O)[C@H](CC(C)C)NC(=O)[C@H](CCCN=C(N)N)NC(=O)[C@H](CC(N)=O)NC(=O)[C@H](CC(N)=O)NC(=O)[C@H](C)NC(=O)[C@H](C)NC(=O)[C@H](CCC(N)=O)NC(=O)[C@H](CCC(N)=O)NC(=O)[C@H](CCCCN)NC(=O)[C@H](CCC(=O)O)NC(=O)[C@H](CCCCN)NC(=O)[C@H](CCC(=O)O)NC(=O)[C@H](CCC(N)=O)NC(=O)[C@H](CCCCN)NC(=O)[C@H](CCC(=O)O)NC(=O)[C@@H](NC(=O)[C@H](CCC(=O)O)NC(=O)[C@@H](NC(=O)[C@H](CCSC)NC(=O)[C@H](CCCCN)NC(=O)[C@H](CCCN=C(N)N)NC(=O)[C@H](CC(C)C)NC(=O)[C@H](CC(C)C)NC(=O)[C@H](Cc1cccc2ccccc12)NC(=O)[C@H](CCC(N)=O)NC(=O)[C@@H]1CCCN1C(=O)[C@H](CC(C)C)NC(=O)[C@H](CC(=O)O)NC(=O)[C@@H](NC(=O)[C@H](CO)NC(=O)[C@@H](NC(=O)[C@@H]1CCCN1C(=O)[C@@H]1CCCN1C(=O)CNC(=O)[C@@H]1CCC(=O)N1)[C@@H](C)CC)[C@@H](C)CC)[C@@H](C)CC)[C@@H](C)CC)[C@@H](C)O)C(=O)O ([pGlu]GPPISIDLPQ[1Nal]LLRKMIEIEKQEKEKQQAANNRLLLDTI-OH)
- Emax [2]: 100%
- Selectivity (Mus musculus): 26
- Emax [3]: 100%
